Assays:
Format in all cases: cell-based
[1] = molecular target: proteins of U3A human fibrosarcoma cells (4462 proteins detected) (Homo sapiens, UniProt Q14847); details: protein LASP1, U3A cells
[2] = molecular target: proteins of U3A human fibrosarcoma cells (4462 proteins detected) (Homo sapiens, UniProt O94915); details: protein FRYL; U3A, 10 μM, 2 h
[3] = molecular target: proteins of U3A human fibrosarcoma cells (4462 proteins detected) (Homo sapiens, UniProt P38919); details: protein EIF4A3; soluble abundance after heat, U3A cells
[4] = molecular target: proteins of U3A human fibrosarcoma cells (4462 proteins detected) (Homo sapiens, UniProt P05556); details: protein ITGB1; U3A cells
[5] = molecular target: proteins of U3A human fibrosarcoma cells (4462 proteins detected) (Homo sapiens, UniProt Q9NRL3); details: protein STRN4; U3A cells
[6] = molecular target: proteins of U3A human fibrosarcoma cells (4462 proteins detected) (Homo sapiens, UniProt Q27J81); details: protein INF2, U3A cells
proteins of U3A human fibrosarcoma cells (4462 proteins detected) (Homo sapiens, UniProt Q27J81), sequence (Q27J81 whole entry): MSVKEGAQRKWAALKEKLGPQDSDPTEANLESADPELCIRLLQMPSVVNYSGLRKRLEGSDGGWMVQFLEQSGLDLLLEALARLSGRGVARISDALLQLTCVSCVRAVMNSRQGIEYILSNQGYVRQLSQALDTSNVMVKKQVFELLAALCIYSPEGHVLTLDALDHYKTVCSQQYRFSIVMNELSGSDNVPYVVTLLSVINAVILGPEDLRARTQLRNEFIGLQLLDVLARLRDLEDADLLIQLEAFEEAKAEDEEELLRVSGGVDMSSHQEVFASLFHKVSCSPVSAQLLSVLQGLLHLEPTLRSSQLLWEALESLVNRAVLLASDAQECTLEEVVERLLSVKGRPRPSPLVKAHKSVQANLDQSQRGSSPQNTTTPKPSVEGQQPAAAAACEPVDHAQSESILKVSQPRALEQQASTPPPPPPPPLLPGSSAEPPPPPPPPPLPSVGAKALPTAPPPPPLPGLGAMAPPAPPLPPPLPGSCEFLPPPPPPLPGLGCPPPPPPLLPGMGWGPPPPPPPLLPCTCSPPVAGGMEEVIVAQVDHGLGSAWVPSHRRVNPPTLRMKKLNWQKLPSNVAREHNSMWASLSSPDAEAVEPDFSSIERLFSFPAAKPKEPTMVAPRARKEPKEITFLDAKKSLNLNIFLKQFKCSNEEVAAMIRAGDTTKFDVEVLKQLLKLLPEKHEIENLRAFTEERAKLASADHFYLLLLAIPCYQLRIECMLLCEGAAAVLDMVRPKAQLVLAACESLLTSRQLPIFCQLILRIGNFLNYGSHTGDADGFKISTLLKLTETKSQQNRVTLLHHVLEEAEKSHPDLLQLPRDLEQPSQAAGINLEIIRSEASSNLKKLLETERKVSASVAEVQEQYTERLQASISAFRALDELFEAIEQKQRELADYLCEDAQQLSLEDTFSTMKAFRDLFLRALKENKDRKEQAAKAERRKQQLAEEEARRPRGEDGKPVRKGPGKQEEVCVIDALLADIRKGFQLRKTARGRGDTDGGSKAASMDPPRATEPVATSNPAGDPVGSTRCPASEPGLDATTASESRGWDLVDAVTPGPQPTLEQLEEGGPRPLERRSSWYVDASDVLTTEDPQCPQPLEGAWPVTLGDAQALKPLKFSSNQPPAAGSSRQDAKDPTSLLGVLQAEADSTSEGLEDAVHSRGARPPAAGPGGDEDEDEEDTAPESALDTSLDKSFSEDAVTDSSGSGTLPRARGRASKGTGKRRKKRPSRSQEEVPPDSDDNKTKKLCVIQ

[7] = molecular target: proteins of U3A human fibrosarcoma cells (4462 proteins detected) (Homo sapiens, UniProt Q9NQW6); details: protein ANLN; soluble abundance after heat, U3A cells
[8] = molecular target: proteins of U3A human fibrosarcoma cells (4462 proteins detected) (Homo sapiens, UniProt P50990); details: protein CCT8; U3A cells
proteins of U3A human fibrosarcoma cells (4462 proteins detected) (Homo sapiens, UniProt P50990), sequence (P50990 whole entry): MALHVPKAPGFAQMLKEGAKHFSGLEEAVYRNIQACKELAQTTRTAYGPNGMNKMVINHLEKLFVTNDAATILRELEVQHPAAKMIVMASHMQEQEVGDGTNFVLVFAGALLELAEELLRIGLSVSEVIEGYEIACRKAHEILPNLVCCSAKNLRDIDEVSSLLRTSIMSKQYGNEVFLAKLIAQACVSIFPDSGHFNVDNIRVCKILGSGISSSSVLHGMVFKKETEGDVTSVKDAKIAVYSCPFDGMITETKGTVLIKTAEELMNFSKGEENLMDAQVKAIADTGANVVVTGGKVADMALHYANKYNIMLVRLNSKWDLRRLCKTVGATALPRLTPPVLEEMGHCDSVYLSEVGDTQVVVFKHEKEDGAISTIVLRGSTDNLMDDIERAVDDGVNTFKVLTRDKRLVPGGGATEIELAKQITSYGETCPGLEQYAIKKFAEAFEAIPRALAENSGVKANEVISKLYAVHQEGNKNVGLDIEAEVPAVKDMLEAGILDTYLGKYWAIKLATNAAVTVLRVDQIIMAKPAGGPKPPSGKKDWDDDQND

[9] = molecular target: proteins of U3A human fibrosarcoma cells (4462 proteins detected) (Homo sapiens, UniProt Q92572); details: protein AP3S1; U3A cells
[10] = molecular target: proteins of U3A human fibrosarcoma cells (4462 proteins detected) (Homo sapiens, UniProt Q9C0E2); details: protein XPO4; soluble abundance after heat, U3A cells
[11] = molecular target: proteins of U3A human fibrosarcoma cells (4462 proteins detected) (Homo sapiens, UniProt Q86TU7); details: protein SETD3; U3A cells
[12] = molecular target: proteins of U3A human fibrosarcoma cells (4462 proteins detected) (Homo sapiens, UniProt Q9H4A6); details: protein GOLPH3; U3A cells
[13] = molecular target: proteins of U3A human fibrosarcoma cells (4462 proteins detected) (Homo sapiens, UniProt Q15397); details: protein KIAA0020; U3A cells
[14] = molecular target: proteins of U3A human fibrosarcoma cells (4462 proteins detected) (Homo sapiens, UniProt Q12874); details: protein SF3A3; U3A cells
[15] = molecular target: proteins of U3A human fibrosarcoma cells (4462 proteins detected) (Homo sapiens, UniProt Q9H7Z7); details: protein PTGES2, U3A cells
[16] = molecular target: proteins of U3A human fibrosarcoma cells (4462 proteins detected) (Homo sapiens, UniProt Q9NRZ9); details: protein HELLS; soluble abundance after heat, U3A cells
[17] = molecular target: proteins of U3A human fibrosarcoma cells (4462 proteins detected) (Homo sapiens, UniProt Q86WQ0); details: protein NR2C2AP, U3A cells
[18] = molecular target: proteins of U3A human fibrosarcoma cells (4462 proteins detected) (Homo sapiens, UniProt P21266); details: protein GSTM3, U3A cells
[19] = molecular target: proteins of U3A human fibrosarcoma cells (4462 proteins detected) (Homo sapiens, UniProt Q9P0K7); details: protein RAI14; soluble abundance after heat, U3A cells
proteins of U3A human fibrosarcoma cells (4462 proteins detected) (Homo sapiens, UniProt Q9P0K7), sequence (Q9P0K7 whole entry): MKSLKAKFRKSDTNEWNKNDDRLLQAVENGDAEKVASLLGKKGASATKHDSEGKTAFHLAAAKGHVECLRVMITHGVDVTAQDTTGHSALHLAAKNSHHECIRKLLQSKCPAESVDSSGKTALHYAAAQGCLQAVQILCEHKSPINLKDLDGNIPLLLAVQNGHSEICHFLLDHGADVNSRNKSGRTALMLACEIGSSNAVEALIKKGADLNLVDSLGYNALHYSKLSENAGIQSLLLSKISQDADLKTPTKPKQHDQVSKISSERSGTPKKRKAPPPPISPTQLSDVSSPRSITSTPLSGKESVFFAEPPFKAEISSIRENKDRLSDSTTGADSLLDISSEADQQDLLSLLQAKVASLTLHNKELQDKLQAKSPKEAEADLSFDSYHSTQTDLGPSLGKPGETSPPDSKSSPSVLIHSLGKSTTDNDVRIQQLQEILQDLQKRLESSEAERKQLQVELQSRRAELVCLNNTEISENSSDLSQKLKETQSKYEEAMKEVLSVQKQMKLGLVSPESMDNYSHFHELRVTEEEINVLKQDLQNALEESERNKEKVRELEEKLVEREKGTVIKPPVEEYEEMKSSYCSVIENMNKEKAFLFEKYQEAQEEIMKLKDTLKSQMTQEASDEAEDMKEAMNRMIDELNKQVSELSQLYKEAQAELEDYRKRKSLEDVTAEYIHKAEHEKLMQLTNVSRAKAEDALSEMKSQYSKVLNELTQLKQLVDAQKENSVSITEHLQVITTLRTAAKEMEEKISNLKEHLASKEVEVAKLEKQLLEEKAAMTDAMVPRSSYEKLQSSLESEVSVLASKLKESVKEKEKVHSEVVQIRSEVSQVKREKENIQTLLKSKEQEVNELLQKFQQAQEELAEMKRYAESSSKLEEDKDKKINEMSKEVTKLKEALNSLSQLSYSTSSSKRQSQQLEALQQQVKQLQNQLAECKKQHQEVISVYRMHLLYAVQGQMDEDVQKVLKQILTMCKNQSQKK

[20] = molecular target: proteins of U3A human fibrosarcoma cells (4462 proteins detected) (Homo sapiens, UniProt Q99873); details: protein PRMT1, U3A cells
[21] = molecular target: proteins of U3A human fibrosarcoma cells (4462 proteins detected) (Homo sapiens, UniProt P50402); details: protein EMD; soluble abundance after heat, U3A cells
[22] = molecular target: proteins of U3A human fibrosarcoma cells (4462 proteins detected) (Homo sapiens, UniProt Q9UFW8); details: protein CGGBP1; soluble abundance after heat, U3A cells
[23] = molecular target: proteins of U3A human fibrosarcoma cells (4462 proteins detected) (Homo sapiens, UniProt P50213); details: protein IDH3A; U3A cells
proteins of U3A human fibrosarcoma cells (4462 proteins detected) (Homo sapiens, UniProt P50213), sequence (P50213 28-366): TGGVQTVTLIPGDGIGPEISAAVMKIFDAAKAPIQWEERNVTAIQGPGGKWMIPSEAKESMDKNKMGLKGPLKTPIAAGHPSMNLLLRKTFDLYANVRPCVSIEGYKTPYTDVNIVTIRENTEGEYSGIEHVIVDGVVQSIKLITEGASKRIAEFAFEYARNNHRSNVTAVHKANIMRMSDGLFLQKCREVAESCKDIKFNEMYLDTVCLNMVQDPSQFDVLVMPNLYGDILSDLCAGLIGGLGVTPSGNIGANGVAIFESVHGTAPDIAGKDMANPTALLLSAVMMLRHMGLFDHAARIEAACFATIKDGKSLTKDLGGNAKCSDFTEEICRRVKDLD

[24] = molecular target: proteins of U3A human fibrosarcoma cells (4462 proteins detected) (Homo sapiens, UniProt P78347); details: protein GTF2I; U3A cells
proteins of U3A human fibrosarcoma cells (4462 proteins detected) (Homo sapiens, UniProt P78347), sequence (P78347 whole entry): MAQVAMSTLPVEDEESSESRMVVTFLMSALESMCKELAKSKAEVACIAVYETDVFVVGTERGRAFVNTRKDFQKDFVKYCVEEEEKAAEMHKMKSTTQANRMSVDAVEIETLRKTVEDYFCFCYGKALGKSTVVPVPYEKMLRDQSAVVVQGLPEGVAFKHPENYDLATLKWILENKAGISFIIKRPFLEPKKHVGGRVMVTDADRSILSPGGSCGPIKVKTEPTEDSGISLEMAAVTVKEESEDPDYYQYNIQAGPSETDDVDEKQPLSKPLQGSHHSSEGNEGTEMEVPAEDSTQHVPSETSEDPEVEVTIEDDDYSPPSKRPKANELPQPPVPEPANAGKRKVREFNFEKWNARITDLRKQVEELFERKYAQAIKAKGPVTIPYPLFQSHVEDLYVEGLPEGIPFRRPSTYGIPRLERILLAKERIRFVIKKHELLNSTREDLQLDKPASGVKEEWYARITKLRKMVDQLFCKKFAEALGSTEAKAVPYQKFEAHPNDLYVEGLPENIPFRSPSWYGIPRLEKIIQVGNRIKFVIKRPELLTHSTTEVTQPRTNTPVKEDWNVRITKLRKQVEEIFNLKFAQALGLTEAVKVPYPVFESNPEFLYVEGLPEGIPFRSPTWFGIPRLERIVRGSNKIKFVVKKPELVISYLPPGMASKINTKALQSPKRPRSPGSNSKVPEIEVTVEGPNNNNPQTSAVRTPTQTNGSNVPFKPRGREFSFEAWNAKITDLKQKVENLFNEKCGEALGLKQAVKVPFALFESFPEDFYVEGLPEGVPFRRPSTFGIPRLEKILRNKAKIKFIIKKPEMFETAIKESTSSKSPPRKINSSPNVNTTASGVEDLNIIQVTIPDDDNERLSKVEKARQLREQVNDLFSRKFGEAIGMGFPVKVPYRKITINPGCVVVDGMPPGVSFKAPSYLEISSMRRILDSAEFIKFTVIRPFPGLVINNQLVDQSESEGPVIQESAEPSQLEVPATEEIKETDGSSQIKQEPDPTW

[25] = molecular target: proteins of U3A human fibrosarcoma cells (4462 proteins detected) (Homo sapiens, UniProt Q9H900); details: protein ZWILCH; U3A cells
proteins of U3A human fibrosarcoma cells (4462 proteins detected) (Homo sapiens, UniProt Q9H900), sequence (Q9H900 whole entry): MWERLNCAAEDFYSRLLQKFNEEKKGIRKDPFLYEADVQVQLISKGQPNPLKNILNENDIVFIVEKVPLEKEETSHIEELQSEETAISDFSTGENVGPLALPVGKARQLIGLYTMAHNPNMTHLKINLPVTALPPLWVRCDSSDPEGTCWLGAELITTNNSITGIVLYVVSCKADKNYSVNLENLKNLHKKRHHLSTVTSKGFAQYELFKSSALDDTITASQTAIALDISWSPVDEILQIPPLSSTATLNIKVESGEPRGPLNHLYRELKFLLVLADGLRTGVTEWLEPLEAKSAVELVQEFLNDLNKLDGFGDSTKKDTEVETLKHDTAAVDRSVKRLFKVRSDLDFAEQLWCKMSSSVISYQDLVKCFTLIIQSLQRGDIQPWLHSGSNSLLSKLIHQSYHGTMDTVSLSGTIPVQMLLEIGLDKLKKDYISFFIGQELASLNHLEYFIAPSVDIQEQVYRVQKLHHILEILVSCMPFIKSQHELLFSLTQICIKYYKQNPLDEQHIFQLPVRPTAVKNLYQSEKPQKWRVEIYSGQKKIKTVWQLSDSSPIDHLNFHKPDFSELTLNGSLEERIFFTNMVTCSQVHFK

[26] = molecular target: proteins of U3A human fibrosarcoma cells (4462 proteins detected) (Homo sapiens, UniProt Q9NVT9); details: protein ARMC1; U3A cells
[27] = molecular target: proteins of U3A human fibrosarcoma cells (4462 proteins detected) (Homo sapiens, UniProt Q9NX08); details: protein COMMD8; soluble abundance after heat, U3A cells
[28] = molecular target: proteins of U3A human fibrosarcoma cells (4462 proteins detected) (Homo sapiens, UniProt Q9Y6G5); details: protein COMMD10; U3A cells
[29] = molecular target: proteins of U3A human fibrosarcoma cells (4462 proteins detected) (Homo sapiens, UniProt Q8NB16); details: protein MLKL; U3A, 10 μM, 2 h
[30] = molecular target: proteins of U3A human fibrosarcoma cells (4462 proteins detected) (Homo sapiens, UniProt P31949); details: protein S100A11, U3A cells

proteins of U3A human fibrosarcoma cells (4462 proteins detected) (Homo sapiens, UniProt Q14847), sequence (Q14847 whole entry): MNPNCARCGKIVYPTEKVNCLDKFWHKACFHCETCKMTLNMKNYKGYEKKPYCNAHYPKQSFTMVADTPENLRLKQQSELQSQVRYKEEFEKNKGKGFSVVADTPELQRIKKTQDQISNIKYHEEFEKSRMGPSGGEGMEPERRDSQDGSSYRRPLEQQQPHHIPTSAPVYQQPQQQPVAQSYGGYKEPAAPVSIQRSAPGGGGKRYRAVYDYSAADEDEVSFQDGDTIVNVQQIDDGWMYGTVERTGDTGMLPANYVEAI

CCc1nc(N)nc(N)c1-c1ccc(Cl)cc1 [pyrimethamine]
Log2 (PYR/DMSO) [1]: -0.04
Log2 (PYR/DMSO), FRYL [2]: 0.28
Log2 (PYR/DMSO) [3]: 0.15
Log2 (PYR/DMSO) [4]: 0.16
Log2 (PYR/DMSO) [5]: 0.16
Log2 (PYR/DMSO) [6]: -0.04
Log2 (PYR/DMSO) [7]: 0.14
Log2 (PYR/DMSO) [8]: 0.16
Log2 (PYR/DMSO) [9]: 0.18
Log2 (PYR/DMSO) [10]: 0.13
Log2 (PYR/DMSO) [11]: 0.20
Log2 (PYR/DMSO) [12]: 0.23
Log2 (PYR/DMSO) [13]: 0.18
Log2 (PYR/DMSO) [14]: 0.18
Log2 (PYR/DMSO) [15]: -0.04
Log2 (PYR/DMSO) [16]: 0.14
Log2 (PYR/DMSO) [17]: -0.03
Log2 (PYR/DMSO) [18]: -0.04
Log2 (PYR/DMSO) [19]: 0.15
Log2 (PYR/DMSO) [20]: -0.05
Log2 (PYR/DMSO) [21]: 0.15
Log2 (PYR/DMSO) [22]: 0.14
Log2 (PYR/DMSO) [23]: 0.16
Log2 (PYR/DMSO) [24]: 0.23
Log2 (PYR/DMSO) [25]: 0.22
Log2 (PYR/DMSO) [26]: 0.16
Log2 (PYR/DMSO) [27]: 0.14
Log2 (PYR/DMSO) [28]: 0.22
Log2 (PYR/DMSO), MLKL [29]: 0.27
Log2 (PYR/DMSO) [30]: -0.04

From PMC8800111 (The Journal of Biological Chemistry, 2021)
